pIC50: −log10 of the molar value. ≈ marks a conversion by molar mass, not a printed value. Structures can show the parent of a compound that is named as a salt. Where two headings read alike, the source gives them in different places.
How the values were obtained:
E. faecium L4001 = assay: Minimum inhibitory concentration (MIC), E. faecium L4001; format: cell-based, Enterococcus faecium; details: Enterococcus faecium
Protocol: (§1) The minimum inhibitory concentration (MIC) is the minimum concentration of an antibiotic with which the growth of a test microbe is inhibited over 18-24 h. The inhibitor concentration can in these cases be determined by standard microbiological methods (see, for example, The National Committee for Clinical Laboratory Standards. Methods for dilution antimicrobial susceptibility tests for bacteria that grow aerobically; approved standard-fifth edition. NCCLS document M7-A5 [ISBN 1-56238-394-9]. NCCLS, 940 West Valley Road, Suite 1400, Wayne, Pa. 19087-1898 USA, 2000). The MIC of the compounds of the invention is determined in the liquid dilution test on the 96-well microtiter plate scale. The bacterial microbes are cultivated in a minimal medium (18.5 mM Na2HPO4, 5.7 mM KH2PO4, 9.3 mM NH4Cl, 2.8 mM MgSO4, 17.1 mM NaCl, 0.033 μg/ml thiamine hydrochloride, 1.2 μg/ml nicotinic acid, 0.003 μg/ml biotin, 1% glucose, 25 μg/ml of each proteinogenic amino acid with the exception of phenylalanine; [H.-P. Kroll; unpublished]) with the addition of 0.4% BH broth (test medium). In the case of Enterococcus faecium L4001, heat-inactivated fetal calf serum (FCS; GibcoBRL, Germany) is added to the test medium in a final concentration of 10%. Overnight cultures of the test microbes are diluted to an OD578 of 0.001 (to 0.01 in the case of enterococci) in fresh test medium, and incubated 1:1 with dilutions of the test substances (1:2 dilution steps) in test medium ([…]). The cultures are incubated at 37° C. for 18-24 hours; enterococci in the presence of 5% CO2.
(§2) The lowest substance concentration in each case at which no visible bacterial growth occurs any longer is defined as the MIC.

[1] = target: S. aureus 133 Translation; assay: S. aureus in vitro transcription-translation assay (firefly luciferase, S30 extract); format: biochemical; details: 50% inhibition of the translation of firefly luciferase
Excerpt: For the construction of a reporter plasmid which can be used in an in vitro transcription-translation assay from S. aureus the plasmid pBESTluc (Promega Corporation, USA) is used. The E. coli tac promoter present in this plasmid in front of the firefly luciferase is replaced by the capA1 promoter with corresponding Shine-Dalgarno sequence from S. aureus. The primers CAPFor 5′-[…]-[…] GCCA-3′ and CAPRev 5′-[…]-3′ are used for this. The primer CAPFor contains the capA1 promoter, the ribosome binding site and the 5′ region of the luciferase gene. After PCR using pBESTluc as template it is possible to isolate a PCR product which contains the firefly luciferase gene with the fused capA1 promoter. This is, after restriction with ClaI and HindIII, ligated into the vector pBESTluc which has likewise been digested with ClaI and HindIII. The resulting plasmid pla can be replicated in E. coli and be used as template in the S. aureus in vitro transcription-translation test.
Six litres of BHI medium are inoculated with a 250 ml overnight culture of an S. aureus Strain and allowed to grow at 37° C. until the OD600 nm is 2-4. The cells are harvested by centrifugation and washed in 500 ml of cold buffer A (10 mM Tris acetate, pH 8.0, 14 mM magnesium acetate, 1 mM DTT, 1 M KCl). After renewed centrifugation, the cells are washed in 250 ml of cold buffer A with 50 mM KCl, and the resulting pellets are frozen at −20° C. for 60 min. The pellets are thawed on ice in 30 to 60 min and taken up to a total volume of 99 ml in buffer B (10 mM Tris acetate, pH 8.0, 20 mM magnesium acetate, 1 mM DTT, 50 mM KCl). 1.5 ml portions of lysostaphin (0.8 mg/ml) in buffer B are provided in 3 precooled centrifuge cups and each mixed with 33 ml of the cell suspension. The samples are incubated at 37° C., shaking occasionally, for 45 to 60 min, before 150 μl of a 0.5 M DTT solution are added. The lysed cells are centrifuged at 30 000×g and 4° C. for 30 min. The cell pellet is taken up in buffer B and then centrifuged again under the same conditions, and the collected supernatants are combined. The supernatants are centrifuged again under the same conditions, and 0.25 volumes of buffer C (670 mM Tris acetate, pH 8.0, 20 mM magnesium acetate, 7 mM Na3 phosphoenolpyruvate, 7 mM DTT, 5.5 mM ATP, 70 μM amino acids (complete from Promega), 75 μg of pyruvate kinase (Sigma, Germany)/ml are added to the upper ⅔ of the supernatant. The samples are incubated at 37° C. for 30 min. The supernatants are dialysed against 2 l of dialysis buffer (10 mM Tris acetate, pH 8.0, 14 mM magnesium acetate, 1 mM DTT, 60 mM potassium acetate) in a dialysis tube with a 3500 Da cut-off with one buffer change at 4° C. overnight. The dialysate is concentrated to a protein concentration of about 10 mg/ml by
covering the dialysis tube with cold PEG 8000 powder (Sigma, Germany) at 4° C. The S30 extracts can be stored in aliquots at −70° C.
The inhibition of protein biosynthesis of the compounds can be shown in an in vitro transcription-translation assay. The assay is based on the cell-free transcription and translation of firefly luciferase using the reporter plasmid pla as template and cell-free S30 extracts obtained from S. aureus. The activity of the resulting luciferase can be detected by luminescence measurement.
The amount of S30 extract or plasmid pla to be employed must be tested anew for each preparation in order to ensure an optimal concentration in the test. […] of the substance to be tested, dissolved in 5% DMSO, are introduced into an MTP. Then […] of a suitably concentrated plasmid solution pla are added. […]

S. aureus T17 = assay: Minimum inhibitory concentration (MIC), biphenomycin-resistant S. aureus T17; format: cell-based, Staphylococcus aureus; details: Staphylococcus aureus; biphenomycin-resistant S. aureus T17
Protocol: (§3) The minimum inhibitory concentration (MIC) is the minimum concentration of an antibiotic with which the growth of a test microbe is inhibited over 18-24 h. The inhibitor concentration can in these cases be determined by standard microbiological methods (see, for example, The National Committee for Clinical Laboratory Standards. Methods for dilution antimicrobial susceptibility tests for bacteria that grow aerobically; approved standard-fifth edition. NCCLS document M7-A5 [ISBN 1-56238-394-9]. NCCLS, 940 West Valley Road, Suite 1400, Wayne, Pa. 19087-1898 USA, 2000). The test substances are thereby initially provided in 1:2 dilution series into 96-well round-bottom microtiter plates (Greiner) double-concentrated in 50 μl of test medium. The aerobically growing test microbes (e.g. staphylococci and enterococci), which are incubated overnight on Columbia blood agar plates (Becton-Dickinson), are, after resuspension in 0.9% NaCl, adjusted to a microbe count of about 5×10^7 microbes/ml and then diluted 1:150 in cation-adjusted MH medium (test medium). 50 μL of this suspension are pipetted onto the test preparations provided in the microtiter plates. The cultures are incubated at 37° C. for 18-24 hours. For microaerophilically growing microbes (e.g. streptococci), 2% lysed horse blood in the final concentration is added to the medium and the cultures are incubated in the presence of 5% CO2. The lowest substance concentration in each case at which no visible bacterial growth occurs any longer is defined as the MIC and is reported in μg/ml.
as §1, §2
(§4) The minimum inhibitory concentration (MIC) is the minimum concentration of an antibiotic with which the growth of a test microbe is inhibited over 18-24 h. The inhibitor concentration can in these cases be determined by standard microbiological methods with modified medium in an agar dilution test (see, for example, The National Committee for Clinical Laboratory Standards. Methods for dilution antimicrobial susceptibility tests for bacteria that grow aerobically; approved standard-fifth edition. NCCLS document M7-A5 [ISBN 1-56238-394-9]. NCCLS, 940 West Valley Road, Suite 1400, Wayne, Pa. 19087-1898 USA, 2000). The bacterial microbes are cultivated on 1.5% agar plates which contain 20% defibrinated horse blood. […]

S. aureus 133 = assay: Minimum inhibitory concentration (MIC), S. aureus 133; format: cell-based, Staphylococcus aureus
Protocol: as §3, §1, §2, §4

[2] = E. faecium L4001, 10% FCS in test medium, read-out: MIC E. faecium L4001
[3] = Staphylococcus aureus, 133; read-out: MIC S. aureus 133
[4] = L4001, read-out: MIC E. faecium L4001
[5] = Staphylococcus aureus, 133, read-out: MIC S. aureus 133

SMILES | MIC (E. faecium L4001; [2]) | pIC50 [1] | MIC (S. aureus T17) | MIC (S. aureus 133; [3]) | MIC (E. faecium L4001; [4]) | MIC (S. aureus 133; [5])
CN1C(=O)[C@H](C[C@@H](O)CN)NC(=O)[C@@H](N)Cc2cc(ccc2O)-c2cccc(c2)C[C@H]1C(=O)NCCC(=O)NC[C@@H](N)CCCN [Example 68] | 8 µg/mL (≈ 12.5 µM) | 6.70 | 1 µg/mL (≈ 1.56 µM) | 1 µg/mL (≈ 1.56 µM) | – | –
NCCC[C@H](NC(=O)[C@@H]1Cc2cccc(c2)-c2ccc(O)c(c2)C[C@H](N)C(=O)N[C@@H](CCCN)C(=O)N1)C(=O)NCCC[C@H](N)CC(=O)NCCN [Example 12, (8S,11S,14S)-14-Amino-N-{(1S)-4-amino-1-[({(4S)-4-amino-6-[(2-aminoethyl)amino]-6-oxohexyl}amino)carbonyl]butyl}-11-(3-aminopropyl)-17-hydroxy-10,13-dioxo-9,12-diazatricyclo[14.3.1.1^2,6]henicosa-1(20),2(21),3,5,16,18-hexaene-8-carboxamide pentahydrochloride] | – | – | 1 µg/mL | – | 16 µg/mL | 1 µg/mL
NCCC[C@H](N)CNC(=O)C[C@H](CCCN)NC(=O)[C@@H]1Cc2cccc(c2)-c2ccc(O)c(c2)C[C@H](N)C(=O)N[C@@H](CCCN)C(=O)N1 [Example 19, (8S,11S,14S)-14-Amino-N-[(1S)-4-amino-1-(2-{[(2S)-2,5-diaminopentyl]amino}-2-oxoethyl)butyl]-11-(3-aminopropyl)-17-hydroxy-10,13-dioxo-9,12-diazatricyclo[14.3.1.1^2,6]henicosa-1 (20),2(21),3,5,16,18-hexaene-8-carboxamide penta(hydrotrifluoroacetate)] | 16 µg/mL (≈ 24 µM) | 7.00 | 1 µg/mL (≈ 1.5 µM) | 1 µg/mL (≈ 1.5 µM) | – | –
NCCNC(=O)[C@@H](N)CCCNC(=O)[C@@H]1Cc2cccc(c2)-c2ccc(O)c(c2)C[C@H](N)C(=O)N[C@@H](C[C@@H](O)CN)C(=O)N1 [Example 5, (8S,11S,14S)-14-Amino-N-{(4S)-4-amino-5-[(2-aminoethyl)amino]-5-oxopentyl}-11-[(2R)-3-amino-2-hydroxypropyl]-17-hydroxy-10,13-dioxo-9,12-diazatricyclo[14.3.1.1^2,6]-henicosa-1(20),2(21),3,5,16,18-hexaene-8-carboxamide tetrahydrochloride] | – | 6.70 | 1 µg/mL | – | 2 µg/mL | 1 µg/mL
NCCC[C@H](N)CNC(=O)[C@H](CCCN)NC(=O)[C@@H]1Cc2cccc(c2)-c2ccc(O)c(c2)C[C@H](N)C(=O)N[C@@H](CCCN)C(=O)N1 [Example 3, (8S,11S,14S)-14-Amino-N-[(s)-4-amino-1-({[(25)-2,5-diaminopentyl]amino}carbonyl)butyl]-11-(3-aminopropyl)-17-hydroxy-10,13-dioxo-9,12-diazatricyclo[14.3.1.1^2,6]henicosa-1(20),2(21),3,5,16,18-hexaene-8-carboxamide pentahydrochloride] | 16 µg/mL | 6.70 | 2 µg/mL | 2 µg/mL | – | –
NCCC[C@H](N)CNC(=O)C[C@@H](N)CCCNC(=O)[C@H](CCCN)NC(=O)[C@@H]1Cc2cccc(c2)-c2ccc(O)c(c2)C[C@H](N)C(=O)N[C@@H](CCCN)C(=O)N1 [Example 15, (8S,11S,14S)-14-Amino-N-((1S)-4-amino-1-{[((4S)-4-amino-6-{[(2S)-2,5-diaminopentyl]-amino}-6-oxohexyl)amino]carbonyl}butyl)-11-(3-aminopropyl)-17-hydroxy-10,13-dioxo-9,12-diazatricyclo[14.3.1.1^2,6]henicosa-1 (20),2(21),3,5,16,18-hexaene-8-carboxamide hexahydrochloride] | – | 7.00 | 2 µg/mL | – | > 32 µg/mL | 1 µg/mL

From patent publication US20080275018A1, “ANTIBACTERIAL AMIDE-MACROCYCLES V” (AiCuris GmbH & Co. KG, priority 2005, published 2008)
